Measured values: ChEMBL document CHEMBL5055685, “Discovery of the First Potent IDO1/IDO2 Dual Inhibitors: A Promising Strategy for Cancer Immunotherapy” (J Med Chem, 2021)

Tests used:
[1] = molecular target: T1, Indoleamine 2,3-dioxygenase 1 (Homo sapiens, UniProt P14902); experiment: Inhibition of IDO1 (unknown origin) assessed as reduction in kynurenine formation using L-tryptophan as substrate by methylene blue reagent based assay relative to control; set-up: concentration or dose not given beside the values; conditions: concentration not given here
Target sequence in this assay (P14902 whole entry, looked up): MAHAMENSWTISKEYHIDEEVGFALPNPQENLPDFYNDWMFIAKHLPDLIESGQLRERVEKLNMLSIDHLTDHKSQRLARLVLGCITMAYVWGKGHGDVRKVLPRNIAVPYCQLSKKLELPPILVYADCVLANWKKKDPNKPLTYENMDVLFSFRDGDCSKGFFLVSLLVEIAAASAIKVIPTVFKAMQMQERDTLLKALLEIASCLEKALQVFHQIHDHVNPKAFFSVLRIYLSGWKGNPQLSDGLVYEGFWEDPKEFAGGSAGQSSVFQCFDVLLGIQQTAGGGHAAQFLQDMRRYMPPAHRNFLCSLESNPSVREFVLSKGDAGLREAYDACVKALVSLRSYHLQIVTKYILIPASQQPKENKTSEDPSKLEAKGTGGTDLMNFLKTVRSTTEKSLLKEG

[2] = molecular target: T2, Indoleamine 2,3-dioxygenase 2 (Homo sapiens) (UniProt Q6ZQW0); experiment: Inhibition of IDO2 (unknown origin) assessed as reduction in kynurenine formation using L-tryptophan as substrate by methylene blue reagent based assay relative to control; set-up: concentration or dose not given beside the values; conditions: concentration not given here
T2 sequence (whole entry): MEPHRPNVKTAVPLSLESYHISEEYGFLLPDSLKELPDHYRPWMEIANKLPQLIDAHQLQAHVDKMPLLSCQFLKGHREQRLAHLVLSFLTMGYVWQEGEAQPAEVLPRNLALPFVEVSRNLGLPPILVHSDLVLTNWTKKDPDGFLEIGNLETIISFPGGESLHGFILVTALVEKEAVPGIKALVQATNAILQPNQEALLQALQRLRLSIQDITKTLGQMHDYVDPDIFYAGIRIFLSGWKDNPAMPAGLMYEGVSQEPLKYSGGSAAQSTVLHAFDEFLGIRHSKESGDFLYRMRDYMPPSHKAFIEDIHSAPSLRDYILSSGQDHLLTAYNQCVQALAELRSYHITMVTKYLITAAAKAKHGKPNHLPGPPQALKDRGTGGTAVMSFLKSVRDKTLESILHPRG

[3] = molecular target: T1, Indoleamine 2,3-dioxygenase 1; experiment: Inhibition of IDO1 (unknown origin) assessed as reduction in kynurenine formation using L-tryptophan as substrate by methylene blue reagent based assay
Target sequence in this assay (P14902 whole entry): as the sequence (P14902 whole entry, looked up) above

[4] = molecular target: T3, Indoleamine 2,3-dioxygenase 2 (Homo sapiens, UniProt Q6ZQW0); experiment: Inhibition of IDO2 (unknown origin) assessed as reduction in kynurenine formation using L-tryptophan as substrate by methylene blue reagent based assay
T3 sequence (Q6ZQW0 whole entry): T2 sequence (whole entry)

[5] = molecular target: T1, Indoleamine 2,3-dioxygenase 1; experiment: Inhibition of IDO1 in IFNgamma-stimulated human HeLa cells assessed as reduction in kynurenine formation measured after 48 hrs by spectrophotometry
Target sequence in this assay (P14902 whole entry): as the sequence (P14902 whole entry, looked up) above

[6] = molecular target: T1, Indoleamine 2,3-dioxygenase 1
Target sequence in this assay (P14902 whole entry): as the sequence (P14902 whole entry, looked up) above

O/N=C(\Nc1ccc(F)c(Br)c1)c1nonc1NCCn1cc(-c2ccccc2)nn1
inhibition [1]: 17% | inhibition [2]: 4%

O/N=C(\Nc1ccc(F)c(Br)c1)c1nonc1NCCn1cc(C2(O)CCCCC2)nn1
IC50 [3]: 0.062 µM | IC50 [4]: 0.865 µM

O/N=C(\Nc1ccc(F)c(Br)c1)c1nonc1NCCn1cc(-c2cccc(O)c2)nn1
inhibition [1]: 38% | inhibition [2]: 13% | IC50 [5]: 0.0136 µM

OCc1cn(CCNc2nonc2/C(=N/O)Nc2ccc(F)c(Br)c2)nn1
IC50 [3]: 0.077 µM | IC50 [4]: 0.794 µM

CCOc1cc(CNC(=O)c2ncoc2-c2ccc(OC)cc2)cc(OCC)c1OCC
IC50 [5]: 0.0063 µM

CCC(C)(O)c1cn(CCNc2nonc2/C(=N/O)Nc2ccc(F)c(Br)c2)nn1 (stereo not drawn)
IC50 [3]: 0.053 µM | IC50 [4]: 0.958 µM

COc1ccc(-c2cn(CCNc3nonc3/C(=N/O)Nc3ccc(F)c(Br)c3)nn2)cc1
inhibition [1]: 8% | inhibition [2]: 15%

O/N=C(\Nc1ccc(F)c(Br)c1)c1nonc1NCCn1cc(C2CC2)nn1
inhibition [1]: 37% | inhibition [2]: 10%

OCCCc1cn(CCNc2nonc2/C(=N/O)Nc2ccc(F)c(Br)c2)nn1
IC50 [3]: 0.098 µM | IC50 [4]: 0.958 µM

CC(OCCO)c1cn(CCNc2nonc2/C(=N/O)Nc2ccc(F)c(Br)c2)nn1 (stereo not drawn)
IC50 [3]: 0.134 µM | IC50 [4]: 0.93 µM

C[C@]1([C@H](O)C[C@H]2c3c(F)cccc3-c3cncn32)CC[C@H](O)CC1
IC50 [6]: 0.007 µM

OCCc1cn(CCNc2nonc2/C(=N/O)Nc2ccc(F)c(Br)c2)nn1
IC50 [3]: 0.247 µM | IC50 [4]: 1.17 µM
